Test results: patent US20230165873A1, “Methods of Use for Single Molecule Compounds Providing Multi-Target Inhibition to Treat Covid 19” (priority 2020, published 2023)
Read-outs that look alike come from different tables or passages of the source.

Assays:
SARS-CoV-2 [1] = test: microbe, parasite or virus in culture; type: cell-based; conditions: for EC50: read-out: Median Effective Dose
SARS-CoV-2 [2] = test: microbe, parasite or virus in culture; conditions: for IC50: Severe acute respiratory syndrome coronavirus 2, HeLa-ACE2, read-out: IC50 inhibition of SARS-CoV-2 (viral plaques)
PI3K gamma = PI3K gamma (Homo sapiens, UniProt P48736); test: PI3K gamma in vitro inhibition; type: biochemical
Procedure: (§1) The kinase or bromodomain inhibitory activity of a compound of the invention can be determined by routine methods known to the skilled artisan without undue experimentation, or by procuring relevant analysis by a commercial vendor offering such services. […] In vivo, PI3K inhibition can be determined from target tissue biopsies by standard tissue processing in which cells are disrupted and Western Blot analysis is performed to determine the presence or absence of pAKT (substrate of PI3K) relative to a control sample. PI3K inhibition assays and BTK inhibition assays are known in the art and can be procured commercially through vendors such as Reaction Biology (Malvern, PA). The activity of a compound of the invention as an inhibitor of a bromodomain-containing protein, such as a BET protein, including BRD2, BRD3, BRD4, and/or BRDT, or an isoform or mutant thereof, may be determined in vitro, in vivo, or in a cell line. In vitro assays include assays that determine inhibition of bromodomain-containing proteins. Alternatively, inhibitor binding may be determined by running a competition experiment where a provided compound is incubated with a bromodomain-containing protein, such as a BET protein bound to known ligands, labeled or unlabeled. In vitro bromodomain inhibition assays can be performed using Alpha Screen Technology (Perkin Elmer Life and Analytical Sciences, Shelton, CT). In vivo bromodomain inhibition can be determined indirectly by evaluating the amount of a protein whose gene transcription is influenced or controlled by the bromodomain protein, for example, MYCN protein transcription is controlled by BRD4 (J.E. Delmore et al., Cell 2011, 146, 904-917; A. Puissant, Cancer Discov. 2013, 3, 308-323).
(§2) IC50 inhibition data against the indicated targets were determined for compounds of the invention using standard in vitro assays (Tables 8 and 9).

PI3K beta = PI3K beta (Homo sapiens, UniProt P42338); test: PI3K beta in vitro inhibition; type: biochemical
Procedure: as §1

BTK C481S = BTK C481S (Homo sapiens, UniProt Q06187, C481S); test: BTK C481S in vitro inhibition; type: biochemical
Procedure: as §1, §2

SARS-CoV-2 [3] = test: SARS-CoV-2 viral load in culture supernatant (RT-QPCR), UNCN1T cells
SARS-CoV-2 [4] = test: Cytopathic effect (CPE), CellTiter-Glo, SARS-CoV-2 infected UNCN1T cells; conditions: read-out: IC50 based on dose response curve by cytopathic effect (CPE), 24 hrs post-infection
SARS-CoV-2 [5] = test: microbe, parasite or virus in culture; type: cell-based; conditions: read-out: IC50 based on dose response curve by cytopathic effect (CPE)
SARS-CoV-2 [6] = test: microbe, parasite or virus in culture; type: cell-based; conditions: read-out: IC50 based on SARS-CoV-2 viral loads in culture supernatant
SARS-CoV-2 [7] = conditions: at effective anti-viral concentrations; Hela-ACE2 cells
BTK = BTK (Homo sapiens, UniProt Q06187); test: BTK in vitro inhibition; type: biochemical
Procedure: as §1, §2

[8] = test system: mice carrying the Fli1 deletion; test: Bleomycin-induced lung fibrosis in mice carrying the Fli1 deletion; type: in vivo; conditions: 50 mg/kg on day 9, 12, 15 after intra-tracheal bleomycin 0.4 mg/kg; sacrifice day 21
Source text: Bleomycin-induced lung fibrosis is the most frequently used rodent model for lung fibrosis, and inflammatory and fibrotic events similar to those seen in human pulmonary fibrosis (Am J Respir Cell Mol Biol. 2013 Aug; 49(2): 167-179; https://www.atsjournals.org/doi/full/10.1165/rcmb.2013-0094TR; PMID: 23526222). Systemic sclerosis (SSc) is manifested by vasculopathy, immune dysregulation and fibrosis of the skin and certain internal organs, especially lungs (Nat Commun. 2014; 5: 5797.; https://www.nature.com/articles/ncomms6797; PMID: 25504335). Friend leukemia integration 1 (Fli1) is a potent repressor of the type I collagen gene. […] Bleomycin was administered intra-tracheally to mice (0.4 mg/kg) and no drug was given during the inflammatory phase (8 days). […] IRS-1 is a component of the insulin signaling pathway which is involved in the increased collagen production by cells carrying the Fli1 deletion.

BRD4-2 = target: T1, BRD4-2 (Homo sapiens, UniProt O60885); test: BRD4-2 in vitro inhibition; type: binding
T1 construct: BRD4-2
Procedure: as §1

SARS-CoV-2 [9] = test: microbe, parasite or virus in culture; type: cell-based; conditions: for EC50: read-out: Median Effective Dose; remark: listed apart in the source
mTOR = mTOR (Homo sapiens, UniProt P42345); test: mTOR in vitro inhibition; type: biochemical
Procedure: as §1, §2

BRD4-1 = target: T2, BRD4-1 (Homo sapiens, UniProt O60885); test: BRD4-1 in vitro inhibition; type: binding
T2 construct: BRD4-1
Procedure: as §1

CDK6 cyclinD1 = CDK6 cyclinD1 (Homo sapiens, UniProt Q00534); test: CDK6 cyclinD1 in vitro inhibition; type: biochemical
Procedure: as §1, §2

CDK4 cyclinD1 = CDK4 cyclinD1 (Homo sapiens, UniProt P11802); test: CDK4 cyclinD1 in vitro inhibition; type: biochemical
Procedure: as §1, §2

PI3K alpha = PI3K alpha (Homo sapiens, UniProt P42336); test: PI3K alpha in vitro inhibition; type: biochemical
Procedure: as §1

Syk = Syk (Homo sapiens, UniProt P43405); test: Syk in vitro inhibition; type: biochemical
Procedure: as §1, §2

PI3K delta = PI3K delta (Homo sapiens, UniProt O00329); test: PI3K delta in vitro inhibition; type: biochemical
Procedure: as §1, §2

[10] = read-out: IC50 based on SARS-CoV-2 viral loads in culture supernatant, 24 hrs post-infection
[11] = read-out: IC50 based on SARS-CoV-2 viral loads in culture supernatant, 48 hrs post-infection
[12] = Severe acute respiratory syndrome coronavirus 2, 24 h
[13] = Severe acute respiratory syndrome coronavirus 2, 48 h
[14] = read-out: IC50 inhibition PI3K gamma

Sequence of PI3K delta (O00329 whole entry): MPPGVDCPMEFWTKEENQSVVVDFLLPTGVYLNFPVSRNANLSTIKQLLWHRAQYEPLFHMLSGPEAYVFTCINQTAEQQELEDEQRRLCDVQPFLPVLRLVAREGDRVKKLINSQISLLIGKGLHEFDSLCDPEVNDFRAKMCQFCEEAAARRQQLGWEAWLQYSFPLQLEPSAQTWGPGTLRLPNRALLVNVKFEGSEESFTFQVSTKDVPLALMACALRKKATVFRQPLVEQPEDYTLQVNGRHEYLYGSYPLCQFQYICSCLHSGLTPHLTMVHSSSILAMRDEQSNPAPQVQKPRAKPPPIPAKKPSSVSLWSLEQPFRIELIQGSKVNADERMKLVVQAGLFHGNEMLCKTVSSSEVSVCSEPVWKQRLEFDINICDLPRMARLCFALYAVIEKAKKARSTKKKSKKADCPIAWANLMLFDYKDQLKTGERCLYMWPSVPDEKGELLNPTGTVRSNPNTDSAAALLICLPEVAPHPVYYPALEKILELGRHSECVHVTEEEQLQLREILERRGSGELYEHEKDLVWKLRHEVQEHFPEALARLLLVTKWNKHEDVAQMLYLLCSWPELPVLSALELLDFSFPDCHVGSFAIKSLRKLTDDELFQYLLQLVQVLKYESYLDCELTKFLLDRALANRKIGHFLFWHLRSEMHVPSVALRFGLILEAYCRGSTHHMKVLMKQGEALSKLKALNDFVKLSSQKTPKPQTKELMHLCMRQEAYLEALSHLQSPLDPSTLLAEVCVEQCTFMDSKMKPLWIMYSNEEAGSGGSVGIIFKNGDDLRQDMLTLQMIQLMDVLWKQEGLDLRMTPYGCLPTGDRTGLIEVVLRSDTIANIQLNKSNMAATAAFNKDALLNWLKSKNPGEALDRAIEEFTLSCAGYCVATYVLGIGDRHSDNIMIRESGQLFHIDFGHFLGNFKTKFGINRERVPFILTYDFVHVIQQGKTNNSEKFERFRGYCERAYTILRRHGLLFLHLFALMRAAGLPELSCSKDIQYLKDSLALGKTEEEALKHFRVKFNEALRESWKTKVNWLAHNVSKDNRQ
Sequence of PI3K delta (P27986 whole entry partner): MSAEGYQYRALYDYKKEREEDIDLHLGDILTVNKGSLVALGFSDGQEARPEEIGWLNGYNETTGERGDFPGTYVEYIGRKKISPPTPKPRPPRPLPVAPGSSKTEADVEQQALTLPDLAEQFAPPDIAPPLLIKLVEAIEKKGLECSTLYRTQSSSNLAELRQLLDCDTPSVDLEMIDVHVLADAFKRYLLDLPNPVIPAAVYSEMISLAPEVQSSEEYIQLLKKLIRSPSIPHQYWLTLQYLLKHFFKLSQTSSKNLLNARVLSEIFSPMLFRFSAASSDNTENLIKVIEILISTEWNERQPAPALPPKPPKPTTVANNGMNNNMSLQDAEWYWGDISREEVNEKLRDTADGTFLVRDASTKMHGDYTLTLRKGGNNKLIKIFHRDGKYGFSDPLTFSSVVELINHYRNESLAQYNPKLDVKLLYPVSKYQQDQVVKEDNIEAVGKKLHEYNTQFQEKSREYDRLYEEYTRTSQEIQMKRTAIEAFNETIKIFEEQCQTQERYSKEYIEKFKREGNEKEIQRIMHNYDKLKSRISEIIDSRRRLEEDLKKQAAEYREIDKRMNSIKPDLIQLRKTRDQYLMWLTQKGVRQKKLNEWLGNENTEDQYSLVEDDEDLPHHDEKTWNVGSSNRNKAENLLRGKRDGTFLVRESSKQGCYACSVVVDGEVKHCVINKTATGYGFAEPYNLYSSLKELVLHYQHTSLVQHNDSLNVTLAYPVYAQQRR
Sequence of CDK6 cyclinD1 (Q00534 whole entry): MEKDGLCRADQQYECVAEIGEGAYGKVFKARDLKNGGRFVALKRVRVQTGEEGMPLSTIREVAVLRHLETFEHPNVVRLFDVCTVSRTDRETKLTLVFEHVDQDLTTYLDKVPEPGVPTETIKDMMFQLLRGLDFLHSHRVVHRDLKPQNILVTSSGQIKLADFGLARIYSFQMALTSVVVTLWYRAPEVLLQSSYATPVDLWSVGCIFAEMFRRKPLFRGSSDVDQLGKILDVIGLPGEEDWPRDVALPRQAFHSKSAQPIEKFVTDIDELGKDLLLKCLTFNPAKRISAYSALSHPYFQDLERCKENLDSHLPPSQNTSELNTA
Sequence of CDK6 cyclinD1 (P24385 whole entry partner): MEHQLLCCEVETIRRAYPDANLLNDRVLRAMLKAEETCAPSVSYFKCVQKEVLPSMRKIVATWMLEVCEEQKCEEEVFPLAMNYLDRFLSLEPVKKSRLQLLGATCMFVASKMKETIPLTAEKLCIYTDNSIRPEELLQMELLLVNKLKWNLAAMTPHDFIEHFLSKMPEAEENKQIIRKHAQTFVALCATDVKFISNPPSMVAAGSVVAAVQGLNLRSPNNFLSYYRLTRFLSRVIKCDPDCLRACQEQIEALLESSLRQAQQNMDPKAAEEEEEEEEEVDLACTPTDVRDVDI
Sequence of PI3K alpha (P42336 whole entry): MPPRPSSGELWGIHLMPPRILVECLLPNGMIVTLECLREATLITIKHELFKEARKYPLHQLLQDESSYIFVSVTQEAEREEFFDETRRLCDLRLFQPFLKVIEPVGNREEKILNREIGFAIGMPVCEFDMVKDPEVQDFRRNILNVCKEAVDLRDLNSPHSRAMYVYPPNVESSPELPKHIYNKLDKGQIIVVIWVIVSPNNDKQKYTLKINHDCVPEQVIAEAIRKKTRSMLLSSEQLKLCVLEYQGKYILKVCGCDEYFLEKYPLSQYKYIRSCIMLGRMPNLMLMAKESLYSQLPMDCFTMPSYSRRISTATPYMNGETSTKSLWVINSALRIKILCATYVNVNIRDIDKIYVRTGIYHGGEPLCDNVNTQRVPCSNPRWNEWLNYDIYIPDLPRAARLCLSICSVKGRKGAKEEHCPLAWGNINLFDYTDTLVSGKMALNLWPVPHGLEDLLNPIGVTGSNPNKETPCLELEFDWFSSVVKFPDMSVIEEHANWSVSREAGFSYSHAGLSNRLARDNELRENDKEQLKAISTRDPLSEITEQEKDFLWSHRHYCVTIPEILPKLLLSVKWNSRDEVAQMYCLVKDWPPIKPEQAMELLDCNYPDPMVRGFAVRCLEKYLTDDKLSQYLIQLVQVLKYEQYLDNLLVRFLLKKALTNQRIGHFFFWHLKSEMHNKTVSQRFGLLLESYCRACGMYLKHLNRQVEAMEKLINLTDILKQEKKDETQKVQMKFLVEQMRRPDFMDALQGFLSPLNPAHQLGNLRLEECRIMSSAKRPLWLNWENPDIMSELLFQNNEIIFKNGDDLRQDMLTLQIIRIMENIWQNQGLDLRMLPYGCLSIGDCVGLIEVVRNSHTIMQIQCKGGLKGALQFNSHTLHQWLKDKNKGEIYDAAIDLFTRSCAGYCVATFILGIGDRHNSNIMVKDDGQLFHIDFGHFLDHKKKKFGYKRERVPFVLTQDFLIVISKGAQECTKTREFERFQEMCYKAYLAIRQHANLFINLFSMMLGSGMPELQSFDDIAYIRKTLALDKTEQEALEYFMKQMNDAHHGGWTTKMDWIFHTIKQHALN
Sequence of PI3K alpha (P27986 whole entry partner): as the sequence (P27986 whole entry partner) above
Sequence of PI3K gamma (P48736 whole entry): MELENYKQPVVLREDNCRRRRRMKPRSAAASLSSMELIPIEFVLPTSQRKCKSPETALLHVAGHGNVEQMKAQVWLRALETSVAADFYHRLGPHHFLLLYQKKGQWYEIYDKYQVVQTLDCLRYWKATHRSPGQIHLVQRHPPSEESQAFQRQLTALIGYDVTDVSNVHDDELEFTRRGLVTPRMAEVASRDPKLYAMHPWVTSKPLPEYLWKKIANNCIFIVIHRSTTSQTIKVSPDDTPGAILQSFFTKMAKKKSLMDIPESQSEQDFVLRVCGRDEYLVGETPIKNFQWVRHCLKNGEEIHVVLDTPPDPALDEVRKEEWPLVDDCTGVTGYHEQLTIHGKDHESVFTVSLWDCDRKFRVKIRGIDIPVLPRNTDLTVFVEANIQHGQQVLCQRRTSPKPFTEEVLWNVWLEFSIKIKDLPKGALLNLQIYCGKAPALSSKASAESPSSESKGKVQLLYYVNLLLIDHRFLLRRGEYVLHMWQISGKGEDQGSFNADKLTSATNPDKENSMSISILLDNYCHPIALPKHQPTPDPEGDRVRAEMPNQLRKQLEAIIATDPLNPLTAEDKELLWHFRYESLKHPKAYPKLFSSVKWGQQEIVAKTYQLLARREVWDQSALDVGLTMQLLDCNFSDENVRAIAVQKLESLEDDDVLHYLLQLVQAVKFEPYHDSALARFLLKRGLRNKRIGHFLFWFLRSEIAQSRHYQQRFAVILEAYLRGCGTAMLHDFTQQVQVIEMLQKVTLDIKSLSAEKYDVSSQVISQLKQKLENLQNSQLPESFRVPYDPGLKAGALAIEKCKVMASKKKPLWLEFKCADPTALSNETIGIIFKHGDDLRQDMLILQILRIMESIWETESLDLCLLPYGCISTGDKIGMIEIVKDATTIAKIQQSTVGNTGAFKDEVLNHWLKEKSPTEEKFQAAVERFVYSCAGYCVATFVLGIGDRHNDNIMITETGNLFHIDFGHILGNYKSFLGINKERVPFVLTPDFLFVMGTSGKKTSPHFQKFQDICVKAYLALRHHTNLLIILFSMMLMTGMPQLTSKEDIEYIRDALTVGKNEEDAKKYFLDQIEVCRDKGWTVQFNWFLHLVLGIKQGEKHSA
Sequence of CDK4 cyclinD1 (P11802 whole entry): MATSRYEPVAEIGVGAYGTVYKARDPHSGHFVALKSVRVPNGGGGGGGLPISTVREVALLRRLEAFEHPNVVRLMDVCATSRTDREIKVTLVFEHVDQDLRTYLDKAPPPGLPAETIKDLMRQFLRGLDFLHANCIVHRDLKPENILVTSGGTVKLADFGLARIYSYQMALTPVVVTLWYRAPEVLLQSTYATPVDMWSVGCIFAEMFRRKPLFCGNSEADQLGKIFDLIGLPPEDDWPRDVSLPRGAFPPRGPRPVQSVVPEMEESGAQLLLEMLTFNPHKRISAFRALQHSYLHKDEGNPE
Sequence of CDK4 cyclinD1 (P24385 whole entry partner): as the sequence (P24385 whole entry partner) above

| SMILES | IC50 (BRD4-2) | IC50 (mTOR) | IC50 (BRD4-1) | IC50 (PI3K gamma; [14]) | IC50 (CDK6 cyclinD1) | IC50 (CDK4 cyclinD1) | IC50 (PI3K alpha) | IC50 (Syk) | IC50 (PI3K delta) | also measured |
| --- | --- | --- | --- | --- | --- | --- | --- | --- | --- | --- |
| O=c1cc(N2CCOCC2)oc2c(-c3ccc4c(c3)OCCO4)csc12 [Compound 0] | 500 to 1000 nM | < 500 nM | < 500 nM |  |  |  |  |  |  | EC50 (SARS-CoV-2 [1]; Severe acute respiratory syndrome coronavirus 2, VERO STAT1 KO Cells, 24 hours post-infection): 2620 nM; inhibition at 2.4 µM (SARS-CoV-2 [2]; Severe acute respiratory syndrome coronavirus 2, HeLa-ACE2): 94%; IC50 (SARS-CoV-2 [2]): 900 nM; IC50 (PI3K gamma; IC50 inhibition PI3K gamma): < 500 nM; IC50 (PI3K beta): < 500 nM; IC50 (BTK C481S): 10000 to 45000 nM; IC50 (SARS-CoV-2 [3]; [10]): 1520 nM; IC50 (SARS-CoV-2 [3]; [11]): 1580 nM; IC50 (SARS-CoV-2 [4]): 250 nM; IC50 (SARS-CoV-2 [5]; [12]): 1800 nM; IC50 (SARS-CoV-2 [5]; [13]): 4400 nM; IC50 (SARS-CoV-2 [6]; [12]): 1020 nM; IC50 (SARS-CoV-2 [6]; [13]): 3220 nM; cellular cytotoxicity (SARS-CoV-2 [7]): no cellular cytotoxicity is noted; IC50 (BTK): 10000 to 45000 nM; prevention of development of fibrosis (Masson Trichrome staining, tissue collagen content, Ashcroft score) [8]: remarkably effective in preventing the development of fibrosis; EC50 (SARS-CoV-2 [9]; Severe acute respiratory syndrome coronavirus 2, UNCN1T Cells, 24 hours post-infection): 1840 nM |
| CN(C)C(=O)c1cc2cnc(Nc3ccc(-c4csc5c(=O)cc(N6CCOCC6)oc45)cc3)nc2n1C1CCCC1 [Compound 6] |  | 1000 to 10000 nM |  | 1000 to 10000 nM | < 500 nM | < 500 nM |  |  |  |  |
| CN(C)C(=O)c1cc2cnc(Nc3ccc(-c4csc5c(=O)cc(N6CCOCC6)oc45)nc3)nc2n1C1CCCC1 [Compound 7] | 1000 to 10000 nM | 1000 to 10000 nM | 10000 to 45000 nM | 10000 to 45000 nM | < 500 nM | < 500 nM | 1000 to 10000 nM |  |  | IC50 (PI3K beta): 10000 to 45000 nM |
| Cc1nn(-c2ccnc(Nc3ccc(-c4csc5c(=O)cc(N6CCN(C(=O)OC(C)(C)C)CC6)oc45)cc3)n2)cc1CN1CC(O)C1 [Compound 56] | > 45000 nM |  | 1000 to 10000 nM | 10000 to 45000 nM | 500 to 1000 nM | 1000 to 10000 nM | 1000 to 10000 nM | < 500 nM | 1000 to 10000 nM |  |
| Cc1nn(-c2ccnc(Nc3ccc(-c4csc5c(=O)cc(N6CCOCC6)oc45)cc3)n2)cc1CN(C)C [Compound 57] | 1000 to 10000 nM |  | 1000 to 10000 nM | 10000 to 45000 nM | < 500 nM | < 500 nM | 500 to 1000 nM | < 500 nM | 500 to 1000 nM |  |
| Cc1nn(-c2ccnc(Nc3ccc(-c4csc5c(=O)cc(N6CCOCC6)oc45)cc3)n2)cc1CN1CCOCC1 [Compound 58] | 1000 to 10000 nM |  | 1000 to 10000 nM | 10000 to 45000 nM | > 45000 nM | > 45000 nM | 500 to 1000 nM | > 45000 nM | < 500 nM |  |
| Cc1nn(-c2ccnc(Nc3ccc(-c4csc5c(=O)cc(N6CCOCC6)oc45)cc3)n2)cc1CN(C)CCO [Compound 59] | 1000 to 10000 nM |  | 1000 to 10000 nM | 10000 to 45000 nM | 1000 to 10000 nM | 1000 to 10000 nM | 1000 to 10000 nM | 500 to 1000 nM | 1000 to 10000 nM |  |
| CCC(CC)COC(=O)[C@H](C)N[P@](=O)(OC[C@H]1O[C@@](C#N)(c2ccc3c(N)ncnn23)[C@H](O)[C@@H]1O)Oc1ccccc1 [Remdesivir, reference compound] |  |  |  |  |  |  |  |  |  | EC50 (SARS-CoV-2 [1]; Severe acute respiratory syndrome coronavirus 2, Vero, 24 h): 533 nM; dose reduction index (DRI) (SARS-CoV-2 [1]; VERO-STAT1 KO cells at Fa 0.5): 2.35; IC50 (SARS-CoV-2 [2]): 100 nM; IC50 (SARS-CoV-2 [3]; [10]): 1060 nM; IC50 (SARS-CoV-2 [3]; [11]): 2750 nM; IC50 (SARS-CoV-2 [4]): 220 nM; IC50 (SARS-CoV-2 [5]; [12]): 2240 nM; IC50 (SARS-CoV-2 [5]; [13]): 4600 nM; IC50 (SARS-CoV-2 [6]; [12]): 1030 nM; IC50 (SARS-CoV-2 [6]; [13]): 760 nM; EC50 (SARS-CoV-2 [9]; [12]): 272 nM; dose reduction index (DRI) (SARS-CoV-2 [9]; UNCN1T cells): 3.75 |
